The values that follow come from ChEMBL document CHEMBL1201862, “PubChem BioAssay data set” (2004).

What all share (experiment): growth of human tumour cells (NCI), 48 h
In test [1] the test system is MDA-N.
Test [2] deals with PC-3.
The subject of test [3] is MDA-MB-231.
Test [4] deals with SN12C.
The test system of test [5] is RXF 393.
The subject of test [6] is NCI-H226.
In test [7] the test system is SF-295.
Test [8] concerns RPMI-8226.
Test [9] relates to ACHN.
Test [10] concerns IGROV-1.
For test [11], the system named is NCI-H23.
For test [12], the system named is OVCAR-4.
For test [13], the system named is KM12.
For test [14], the system named is SK-MEL-2.
Test [15] deals with TK-10.
Test [16] concerns 786-0.
Test [17] has as its system CAKI-1.
Test [18] has as its system OVCAR-5.
Test [19] deals with HOP-92.

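1) Cells in 96-well plates. 2) Compound, 48 h, 5 concentrations. 3) Linear interpolation between surrounding doses. 4) Unreached endpoint = highest concentration. Here, GI50 denotes the concentration required for 50% inhibition of growth.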 Activity calls are given as the source filed them. Rule as the data show it: active = GI50 up to about 1.1 µM and inactive = higher. A value given as a limit tells only on which side of the number the result lay.

With `C/C(=N\Nc1nc2ccccc2s1)c1cc2ccccc2cn1`, the GI50 in [1] was 8.69 µM (inactive); in [2], 5.42 µM (inactive); in [3], 4.88 µM (inactive); in test [4], 4.29 µM (inactive); in [5], 3.61 µM (inactive); in [6], 1.73 µM (inactive). For the same molecule, the GI50 is 3.7 µM (inactive) in test [7]; 3.21 µM (inactive) in test [8]; 2.88 µM (inactive) in test [9]; 1.61 µM (inactive) in [10]; 3.21 µM (inactive) in test [11]; 1.75 µM (inactive) in test [12]. Further, the GI50 in test [13] is 4.89 µM (inactive); in test [14], 6.79 µM (inactive); in test [15], 3.94 µM (inactive); in test [16], 2.52 µM (inactive); in [17] it was 3.03 µM (inactive); in [18] it was 4.38 µM (inactive). Also, the GI50 in test [19] is 8.63 µM (inactive).
As for `CC(C)OC(=O)OCSc1ccccc1/N=C/c1cccc([N+](=O)[O-])c1`, the GI50 in test [1], in test [2], in [3], in test [4], in test [5] and in test [6] was > 10 µM (inactive) in each case. Moreover, the GI50 in test [7], in test [8], in [9], in test [10], in test [11] and in test [12] was > 10 µM (inactive) throughout. In addition, the GI50 in test [13], in test [14], in test [15], in test [16], in test [17] and in test [18] was > 10 µM (inactive) in each case. Moreover, the GI50 in [19] is > 10 µM (inactive).
`NC(=O)NC(=O)C1CCCCC1C(=O)O` (stereo not given): the GI50 in test [1], in test [2], in test [3], in test [4], in test [5] and in test [6] was > 100 µM (inactive) each time. The GI50 in test [7], in test [8], in [9], in [10], in [11] and in test [12] was > 100 µM (inactive) each time. In addition, the GI50 in [13], in test [14], in test [15], in test [16], in test [17] and in test [18] was > 100 µM (inactive) in each case. The GI50 in test [19] was > 100 µM (inactive).
`COc1ccc(CCc2ccc3c(c2)OCO3)cc1`: the GI50 in test [1] is 28.9 µM (inactive); in [2] it was 34.6 µM (inactive); in [3] it was > 100 µM (inactive); in [4] it was > 100 µM (inactive); in test [5] it was 21.9 µM (inactive); in test [6], 62.5 µM (inactive). Moreover, the GI50 in [7] is 65 µM (inactive); in test [8], 36.6 µM (inactive); in [9] it was > 100 µM (inactive); in test [10] it was 70.5 µM (inactive); in test [11], > 100 µM (inactive); in test [12], 68.7 µM (inactive). Moreover, the GI50 in test [13] was 29.2 µM (inactive); in test [14] it was 31.5 µM (inactive); in test [15], > 100 µM (inactive); in test [16] it was > 100 µM (inactive); in [17] it was 75.5 µM (inactive); in [18], > 100 µM (inactive). The GI50 in [19] is 36.8 µM (inactive).
Take `CCc1nc2c(c(N(C)C)c1C(=O)OC)CCc1ccccc1-2`: the GI50 in test [1] is 26.2 µM (inactive); in test [2], 18 µM (inactive); in test [3], 23.5 µM (inactive); in test [4], 28.8 µM (inactive); in [5], 31.2 µM (inactive); in test [6] it was 21.5 µM (inactive). Also, the GI50 in [7] is 17.6 µM (inactive); in test [8] it was 18.7 µM (inactive); in test [9] it was 23 µM (inactive); in test [10], 40.4 µM (inactive); in test [11] it was 34.4 µM (inactive); in test [12] it was 44.8 µM (inactive). The GI50 is 30.9 µM (inactive) in [13]; 17.8 µM (inactive) in test [14]; 35.5 µM (inactive) in test [15]; 39.5 µM (inactive) in [16]; 51.1 µM (inactive) in test [17]; 32.2 µM (inactive) in test [18]. For the same molecule, the GI50 in test [19] is 65.2 µM (inactive).
`CCOC(=O)C(NC(C)=O)(Nc1ccc(S(N)(=O)=O)cc1)C(F)(F)F` (stereo not given): the GI50 in test [1], in [2], in test [3], in [4], in [5] and in test [6] was > 100 µM (inactive) each time. In addition, the GI50 in [7], in test [8], in test [9], in test [10], in test [11] and in test [12] was > 100 µM (inactive) throughout. The GI50 is 3.58 µM (inactive) in [13]; > 100 µM (inactive) in test [14]; > 100 µM (inactive) in test [15]; > 100 µM (inactive) in test [16]; > 100 µM (inactive) in test [17]; > 100 µM (inactive) in test [18]. The GI50 in test [19] was > 100 µM (inactive).
On to `Cc1nc2ccccc2n1CCc1nc2ccccc2[nH]1`, for which the GI50 was > 100 µM (inactive) in test [1]; > 100 µM (inactive) in test [2]; > 100 µM (inactive) in [3]; > 100 µM (inactive) in test [4]; > 100 µM (inactive) in test [5]; 31.6 µM (inactive) in [6]. In addition, the GI50 in [7], in [8], in [9], in [10], in test [11] and in test [12] was > 100 µM (inactive) throughout. Further, the GI50 in test [13], in test [14], in test [15], in test [16], in test [17] and in test [18] was > 100 µM (inactive) in each case. In addition, the GI50 in test [19] was > 100 µM (inactive).
For the molecule `C/C=C/C=C\C=C/C(O)C(C)C(CCC(C)C1OC(=O)C=CC1C)OP(=O)(O)O` (stereo not given), the GI50 in test [1] is 0.296 µM (active); in test [2], 0.23 µM (active); in test [3], 35.8 µM (inactive); in test [4], 0.323 µM (active); in test [5] it was 0.527 µM (active); in test [6], 0.614 µM (active). The GI50 in test [7] is 0.287 µM (active); in [8] it was 0.127 µM (active); in test [9], 0.351 µM (active); in test [10], 0.275 µM (active); in test [11] it was 1.52 µM (inactive); in test [12] it was 1.23 µM (inactive). Moreover, the GI50 in test [13] is 0.318 µM (active); in test [14], 0.692 µM (active); in test [15], 0.618 µM (active); in test [16], 0.404 µM (active); in test [17] it was 0.136 µM (active); in test [18] it was 0.263 µM (active). Further, the GI50 in [19] was 0.244 µM (active).
For `CC1c2cc(c3c(c2O)CN([C@@H](C)C2CCCCC2)CO3)C(C)c2cc(c3c(c2O)CN([C@@H](C)C2CCCCC2)CO3)C(C)c2cc(c3c(c2O)CN([C@@H](C)C2CCCCC2)CO3)C(C)c2cc1c1c(c2O)CN([C@@H](C)C2CCCCC2)CO1` (stereo not given in full), the GI50 in test [1] is 0.849 µM (active); in [2] it was 1.77 µM (inactive); in test [3], 1.31 µM (inactive); in test [4], 0.962 µM (active); in [5], 2.44 µM (inactive); in test [6] it was 0.979 µM (active). The GI50 in [7] was 1.8 µM (inactive); in test [8], 0.414 µM (active); in [9], 1.47 µM (inactive); in test [10], 1.32 µM (inactive); in test [11], 1.5 µM (inactive); in test [12], 0.929 µM (active). Moreover, the GI50 in [13] was 0.838 µM (active); in test [14] it was 2.11 µM (inactive); in test [15] it was 1.73 µM (inactive); in test [16], 1.13 µM (inactive); in [17] it was 1.6 µM (inactive); in test [18], 1.78 µM (inactive). The GI50 in test [19] is 1.45 µM (inactive).
Turning to `Clc1ccc(/C=N/C23CC4CC(CC(C4)C2)C3)c(Cl)c1`, the GI50 in test [1], in test [2], in test [3], in [4], in [5] and in test [6] was > 10 µM (inactive) throughout. Further, the GI50 in test [7], in [8], in test [9], in test [10], in [11] and in [12] was > 10 µM (inactive) each time. Further, the GI50 in test [13], in [14], in test [15], in test [16], in [17] and in test [18] was > 10 µM (inactive) throughout. The GI50 in [19] is > 10 µM (inactive).
